The text below walks through data of paper PMC7925099, “Identification of an Antiretroviral Small Molecule That Appears To Be a Host-Targeting Inhibitor of HIV-1 Assembly” (Journal of Virology, 2021).

The structures appear in SMILES notation. pEC50: −log10 of the molar value. Bounds are passed on as bounds.

For series [1], the system named is HIV-1 (chronically infected H9 T cells, H9-HIV). As to the kind of experiment: Inhibition of HIV-1 late events: virus production (αGag WB of pelleted virus). Type of series: cell-based. The conditions noted are these: Human immunodeficiency virus 1, T-cell.
A short description of series [2]: in vitro. The conditions noted are these: human, CC50.
Experimental: (§1) For each viral inhibition assay, a cytotoxicity assay was performed in parallel on uninfected cells by adding 1/10 volume of alamarBlue (Thermo Fisher, Waltham, MA; DAL1199) to the plates, followed by thorough mixing. AlamarBlue-treated plates were incubated for 2 to 3 h at 37°C (the timing was optimized for the linear signal), mixed well, and read using a fluorescence plate reader with 560 nm and 590 nm as the excitation and emission settings, respectively (Synergy H1; BioTek Instruments, Inc.).
(§2) EC50 and CC50 values were determined in Excel using four-parameter logistic regression analysis of dose-response data generated from the viral inhibition or cytotoxicity assays, respectively. […] Average EC50 and CC50 values were calculated using the geometric mean and average values were reported with the geometric standard deviation (GSD).
Series [3] concerns HIV-1 LAI pro– Δenv (pseudotyped with HIV-1 NL4-3 Env). As to the kind of experiment: MT-2 acute infection assay (VLP, intracellular Gag, assembly intermediates). As to conditions: MT-2 cells.
Experimental: For Fig. 3B, culture supernatants were collected at 48 h, and virus was pelleted by adding 75 μl of 17% PEG 6000–0.8 M NaCl–PBS to 75 μl of medium from the assay in a 96-well V-bottom polypropylene plate. PEG and media were incubated on ice for 2 h or overnight at 4°C. Virus was pelleted at 1,847 × g for 30 min at 4°C in the plate in an Allegra centrifuge (Beckman), and the pellet was resuspended in 50 μl of loading buffer with dithiothreitol for analysis by WB with αGag. For Fig. 4, culture supernatants were collected at 48 h postinfection and filtered through a 0.45-μm PES syringe filter to remove any remaining cells. Virus-like particles were centrifuged through a 30% (wt/vol) sucrose-PBS cushion at 130,000 × g, 30 min, and 4°C in an SW55Ti rotor (Beckman), and the virus pellet was harvested for analysis by WB with αGag.
MT-2 cells were diluted to 2 × 10^6 cells/ml with complete RPMI and bulk infected at an MOI of 1 for 2 h at 37°C. Compound was diluted 100-fold to the final required concentration with DMSO. The compound dilutions and DMSO-only controls were then further diluted 50-fold with complete RPMI, and 1 ml of the dilutions was added per well in a 12-well plate. Bulk-infected cells were then washed and adjusted to 0.5 × 10^6 cells/ml, and 1 ml of infected cells was added to each well containing diluted compound or DMSO. At 48 h, the medium was collected for virus pelleting as described above, and the cells were washed and lysed (see “Cell lysis” below).
MT-2 cells were collected and washed three times by pelleting at 200 × g for 5 min at 4°C in an Allegra centrifuge (Beckman) and resuspending cells in ice-cold PBS. Cell pellets were lysed with 250 μl lysis buffer (20 mM HEPES [pH 7.9], 14 mM potassium acetate, 1 mM MgCl2, 0.3% NP-40), followed by shearing 20× with a 20-gauge needle. Cell lysate was then clarified 200 × g for 10 min at 4°C in an Allegra centrifuge (Beckman). The supernatant was transferred to a fresh tube and further clarified by centrifugation at 18,000 × g for 10 min at 4°C in a Microfuge (Beckman), and the supernatant was transferred to a fresh tube.
To prepare gradients, 10, 15, 40, 50, 60, 70, and 80% (wt/vol) sucrose solutions were prepared with water, and then each was diluted 1/10 with a 10× stock of the lysis buffer used to harvest cells (see “Cell lysis”). For each gradient, ∼100 μl of cell lysate (∼100 μg of total protein) was layered on a 5-ml step gradient containing equivalent layers of each diluted sucrose solution prepared and subjected to velocity sedimentation in a Beckman MLS-50 rotor 217,000 × g for 45 min at 4°C. Gradients were fractionated from top to bottom, and pelleted material was harvested for WB. Aliquots of fractions and pellet were analyzed by SDS-PAGE, followed by WB with αGag.
Series [4] relates to MT-2 cells.
Experimental: as §1, §2
Series [5] in a line: in vitro. As to conditions: cat.
Experimental: as §1, §2
For series [6], the system named is FIV 34TF10. As to the kind of experiment: FIV inhibition assay (spreading infection, RT activity). Type of series: cell-based, feline immunodeficiency virus. The method, then:
G355-5 cells were transfected in six-well plates, and each well was transfected with 2 μg per well of FIV 34TF10 ORFA+ proviral plasmid. At 24 h posttransfection, the cells were washed, and the medium was replaced with 4 ml of complete McCoy 5A. At 144 h posttransfection, the medium was filtered using a 0.45-μm syringe filter, aliquoted, and stored at −80°C. The reverse transcriptase (RT) activity in media from FIV or mock-transfected cells was estimated using SG-PERT ([94]). A set of recombinant RT standards (EMD Millipore, Molsheim, France; catalog no. 382129) ranging from 5.12E3 to 5.12E9 nU/ml was used to estimate the nU/ml of RT activity in the FIV stock.
Inhibition of FIV spreading infection was assayed using G355-5 cells, seeded on the prior day at 8,000 cells/well in a 96-well plate.

Series [7] relates to HIV-1 (chronically infected H9 T cells, H9-HIV). As to the kind of experiment: Inhibition of HIV-1 late events: infectious virus production by H9-HIV cells. As to conditions: Human immunodeficiency virus 1, 48 h, titered on TZM-bl cells, read-out: EC50INF (inhibition of infectivity of culture supernatant). Type of series: cell-based. On the procedure: For these experiments, we used H9-HIV, a chronically infected H9 T cell line. Compounds were diluted as described under MT-2 spreading infection above. […] To measure inhibition of virus production (Fig. 3B, blue graph and blot), PEG pelleted virus (harvested as described in “Virus pelleting” above) was analyzed by WB with αGag.

Series [8] concerns HIV-1 NL4-3 RLuc. As to the kind of experiment: MT-2 spreading infection assay (inhibition of HIV-1 replication). As to conditions: for pEC50: Human immunodeficiency virus 1, NL43, T-cell, 96 h, read-out: EC50 for inhibition of HIV-1 replication; for SI (CC50/EC50): from average values.
Experimental: Inhibition of HIV-1 viral replication was assayed in a spreading infection using MT-2 cells and NL4-3 RLuc reporter virus. For dose-response curves, compounds were initially diluted with DMSO to 100-fold the starting concentration in a 96-well plate and subjected to a series of 3-fold dilutions in DMSO for a total of eight or nine dilutions. If a single compound concentration was tested, the compound was diluted to 100-fold the desired concentration in DMSO. Compounds were then diluted 50-fold with infection media prepared by diluting NL4-3 RLuc virus stock to 400 IU/100 μl with complete RPMI. Then, 100 μl of 50-fold-diluted compound was transferred to 20,000 MT-2 cells that were preseeded in 96-well plates in 100 μl of complete RPMI for a final volume of 200 μl, followed by incubation at 37°C for 96 h. The final MOI in infected plates was 0.02, and the final DMSO concentration in all wells was 1%. All assays were run with three replicates. For each replicate, one well received DMSO only, and one well received medium only for normalization and background correction. […] Plates were read on a luminescence plate reader (Synergy H1; BioTek Instruments, Inc.).
as §2
A short description of series [9]: Cytotoxicity assay on SupT1.CCR5 cells. The conditions noted are these: human, SupT1.CCR5 cells (uninfected).
Experimental: as §1, §2
Series [10] in a line: in vitro. As to conditions: human. Type of series: cell-based.
Series [11] relates to influenza A virus WSN/33 (H1N1) (FLUV). Type of series: cell-based.
The subject of series [12] is MT-2 cells. Kind of series: Cytotoxicity assay (alamarBlue) on uninfected MT-2 T cells. As to conditions: uninfected MT-2 cells. (Alamar Blue is a resazurin reagent that responds to reducing activity.)
Experimental: as §1, §2
Series [13] concerns HIV-1 NL4-3. Kind of series: PBMC spreading infection assay. Type of series: cell-based. On the procedure: Thawed, unstimulated PBMCs (BenTech, Seattle, WA) were pelleted by centrifugation 228 × g for 8 min in an Allegra centrifuge (Beckman, Brea, CA). Pellets were resuspended in activation medium containing RPMI supplemented with 21 ng/ml human interleukin-2 (IL-2; […] Remel, San Diego, CA; R30852801), 10% FBS, and 1% penicillin-streptomycin, at a density of 2 × 10^6 cells/ml. After a 3-day incubation, the cells were collected and resuspended in RPMI with 20% FBS and 10% DMSO and then frozen as 50 × 10^6 cells per vial. […] Compound dilutions were prepared in complete PBMC medium as described above, but without virus, and 100 μl of diluted compound was transferred to 96-well U-bottom plates. Bulk-infected cells were pelleted and resuspended in complete PBMC medium at 1 × 10^6 cells/ml, and 100 μl of cell suspension was transferred to each well at 100,000 cells per well with diluted compound. After 96 h, the medium was collected for relative infectivity measurements as for the SupT1.CCR5 spreading infection assay.

Series [14] concerns PBMCs. The conditions noted are these: human.
Experimental: as §1, §2
The subject of series [15] is HIV-1 NL4-3. Type of series: cell-based. The conditions noted are these: MT-2 cells, 37 weeks of selection.

One may read the inhibition as the percentage by which the read-out fell short of the control. Regarding `COc1cc(C)c(/C=C/C2NCCc3cc(OCc4ccccc4)c(OC)cc32)cc1OCc1ccccc1` (stereo not drawn) [PAV-117], the inhibition at 0.002 µM in [1] (2 nM, H9-HIV, WB of virus pellets, read-out: % inhibition of virus production (relative to DMSO)) is 2%. Besides, the inhibition at 0.005 µM in series [1] (5 nM, H9-HIV, WB of virus pellets, read-out: % inhibition of virus production (relative to DMSO)) came to 7%. In addition, in series [1] (16 nM, H9-HIV, WB of virus pellets, read-out: % inhibition of virus production (relative to DMSO)), the inhibition at 0.016 µM stood at 7%. The inhibition at 0.049 µM in series [1] (49 nM, H9-HIV, WB of virus pellets, read-out: % inhibition of virus production (relative to DMSO)) was 31%. Further, the inhibition at 0.148 µM in [1] (148 nM, H9-HIV, WB of virus pellets, read-out: % inhibition of virus production (relative to DMSO)) was determined as 48%. The inhibition at 0.444 µM in [1] (444 nM, H9-HIV, WB of virus pellets, read-out: % inhibition of virus production (relative to DMSO)) was 86%. In [1] (1333 nM, H9-HIV, WB of virus pellets, read-out: % inhibition of virus production (relative to DMSO)), the inhibition at 1.333 µM is 92%. The inhibition at 4 µM in series [1] (4000 nM, H9-HIV, WB of virus pellets, read-out: % inhibition of virus production (relative to DMSO)) came out at 96%. Also, the inhibition at 10 µM in [1] (10000 nM, H9-HIV, WB of virus pellets, read-out: % inhibition of virus production (relative to DMSO)) was found to be 92%. Also, the pEC50 is 6.95 in [1] (H9-HIV cells, 48 h, αGag WB, read-out: EC50VLP (inhibition of virus production, p24 Gag in virus pellets)); 6.23 in series [6] (Feline immunodeficiency virus, feline G355-5 cells, FIV 34TF10, 144 h, RT activity, read-out: EC50 for inhibition of FIV replication); 6.98 in [7]; 7.32 in series [8]. The CC50 in series [2] is 1000 nM; in series [4] (human), 1100 nM; in [5], 1100 nM; in series [9], 1100 nM; in [10] it was 1600 nM. The “∼EC70 (treatment concentration)” value in [3] (48 h treatment) was approximately 0.25 nM. The “steady-state levels of actin and GAPDH” value in series [3] (48 h) was “minimally affected”. Moreover, the “steady-state level of the ∼500S intermediate as a percentage of total Gag” value in series [3] (48 h, velocity sedimentation) is “dose-dependent decrease”. The “VLP release into the supernatant” value in series [3] (protease-deficient provirus, 48 h) is “dose-dependent reduction”. Besides, the “steady-state intracellular p55 Gag levels” value in [3] (highest PAV-117 concentration tested, 48 h) is reported as “some reduction”. For the same compound, the “CC50 (μM)” value in series [4] worked out at 1.4 ×/÷ 1.5 μM. In addition, in [6] (G355-5 cells), the “fold by which FIV EC50 is lower than CC50 in G355-5 cells” value is listed as less than 2 fold. Further, the “SI (CC50/EC50)” value in series [8] (MT-2 cells) worked out at 14. For the same compound, in series [8] (MT-2 cells, from the shown dose-response curve), the “selectivity index (CC50/EC50)” value came to 21. The “activity against FLUV (infectious titer)” value in series [11] is on record as “not active”.
Compound `COc1cc(C)c(/C=C/C2NCCc3cc(OCc4ccccc4)c(OC)cc32)cc1OC` (stereo not drawn) [PAV-206] had a CC50MT-2 in [12] of 2811 nM. Further, the selectivity index in [13] (HIV-1-infected PBMCs) came out at 48. The pEC50 was 7.12 in [13] (Human immunodeficiency virus 1, NL43, PBMC, PHA-activated PBMCs, HIV-1 NL4-3, MOI 0.008, 96 h) and 7.47 in [8]. In addition, the “CC50 (μM)” value in series [4] was 2.2 ×/÷ 1.4 μM. Further, in series [14], the CC50PBMC is 3591 nM. In addition, the “SI (CC50/EC50)” value in series [8] (MT-2 cells) stood at 61. In addition, in series [15], the “resistance level reached: compound concentration allowing virus replication, fold higher than the EC50” value was determined as 8 fold.
